Results: US12606541B2, “PPARg modulators and methods of use” (Eisai R&D Management Co., Ltd., priority 2020, dated 2026)

target: T1, His6-TEV-PPARγ-(234-505) (Homo sapiens, UniProt P37231); experiment: TR-FRET Assay to Measure Co-R Peptide Recruitment to PPARγ; type: biochemical; settings: Co-R peptide recruitment to PPARγ; read-out: TR-FRET AC50
T1 construct: The His6-TEV-PPARγ-(234-505) protein for assay was expressed and purified; TEV cleavage site (N); made in house
T1 sequence (P37231 234-505): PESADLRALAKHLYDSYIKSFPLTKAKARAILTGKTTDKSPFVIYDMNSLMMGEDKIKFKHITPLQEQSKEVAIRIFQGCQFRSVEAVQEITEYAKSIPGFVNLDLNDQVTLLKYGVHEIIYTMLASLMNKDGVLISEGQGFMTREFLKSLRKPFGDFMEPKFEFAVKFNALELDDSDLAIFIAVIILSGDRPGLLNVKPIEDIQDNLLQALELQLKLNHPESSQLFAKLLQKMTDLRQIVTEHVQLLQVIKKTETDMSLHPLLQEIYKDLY
Experimental: TR-FRET Assay to Measure Co—R Peptide Recruitment to PPARγ
The 2× detection solution contained anti-6×His-Terbium antibody (CisBio) and FITC labeled Co—R peptide (SMRT-ID2 from New England Peptide) at final concentrations of 5 and 200 nM respectively.
In these assay plates, the positive control in column 24 contained 500 nM (final) T0070907 and the negative control in column 23 contained an identical volume of DMSO. Then, 5 μL of 2+ protein working stock or controls were added to the plate and incubated for 20 minutes at room temperature. Reagents additions were performed with either a Combi (Thermo) or Mantis (Formulatory) pipetting device. The incubation was followed by addition of 5 μL of the 2× detection solution. Plates were covered, centrifuged, and incubated for an additional hour. The TR-FRET data was recorded with an Envision plate reader (Perkin Elmer), using settings recommended by Thermo Fisher. The TR-FRET signal of the positive and negative control's recruitment of FITC-Co—R peptide was used to normalize the TR-FRET signal to percent response and to determine the assay Z prime. Experiments were performed in triplicate and analyzed in GraphPad Prism 7.

AC50, > 1000 nM:
COc1cc(-c2cc(C(=O)N3CCC(C(=O)NC4CCC(C)(OC)CC4)CC3)n[nH]2)c(Cl)cn1 (stereo not shown) [1-[5-(5-chloro-2-methoxypyridin-4-yl)-1H-pyrazole-3-carbonyl]-N-(4-methoxy-4-methylcyclohexyl)piperidine-4-carboxamide]
COc1cc(-c2cc(C(=O)N3CCC(C(=O)NC4(C)CCOCC4)CC3)n[nH]2)c(Cl)cn1 [1-[5-(5-chloro-2-methoxypyridin-4-yl)-1H-pyrazole-3-carbonyl]-N-(4-methyloxan-4-yl)piperidine-4-carboxamide]
COc1cc(-c2cc(C(=O)N3CCC(C(=O)Nc4cnncc4Cl)CC3)n[nH]2)c(Cl)cn1 [1-[5-(5-chloro-2-methoxypyridin-4-yl)-1H-pyrazole-3-carbonyl]-N-(5-chloropyridazin-4-yl)piperidine-4-carboxamide]
COc1cc(-c2cc(C(=O)N3CCC(C(=O)Nc4cnc(C)cn4)CC3)n[nH]2)c(Cl)cn1 [1-[5-(5-chloro-2-methoxypyridin-4-yl)-1H-pyrazole-3-carbonyl]-N-(5-methylpyrazin-2-yl)piperidine-4-carboxamide]
COc1cc(-c2cc(C(=O)N3CCC(C(=O)NC4CNC(=O)C4)CC3)n[nH]2)c(Cl)cn1 (stereo not shown) [1-[5-(5-chloro-2-methoxypyridin-4-yl)-1H-pyrazole-3-carbonyl]-N-(5-oxopyrrolidin-3-yl)piperidine-4-carboxamide]
COc1cc(-c2cc(C(=O)N3CCC(C(=O)Nc4cc(-c5ccccc5)[nH]n4)CC3)n[nH]2)c(Cl)cn1 [1-[5-(5-chloro-2-methoxypyridin-4-yl)-1H-pyrazole-3-carbonyl]-N-(5-phenyl-1H-pyrazol-3-yl)piperidine-4-carboxamide]
COc1cc(-c2cc(C(=O)N3CCC(C(=O)NC4CCS(=O)(=O)c5ccc(F)cc54)CC3)n[nH]2)c(Cl)cn1 (stereo not shown) [1-[5-(5-chloro-2-methoxypyridin-4-yl)-1H-pyrazole-3-carbonyl]-N-(6-fluoro-1,1-dioxo-3,4-dihydro-2H-1λ^6-benzothiopyran-4-yl)piperidine-4-carboxamide]
COc1cc(-c2cc(C(=O)N3CCC(C(=O)Nc4cncc(C)n4)CC3)n[nH]2)c(Cl)cn1 [1-[5-(5-chloro-2-methoxypyridin-4-yl)-1H-pyrazole-3-carbonyl]-N-(6-methylpyrazin-2-yl)piperidine-4-carboxamide]
COc1cc(-c2cc(C(=O)N3CCC(C(=O)Nc4cnnc5ccccc45)CC3)n[nH]2)c(Cl)cn1 [1-[5-(5-chloro-2-methoxypyridin-4-yl)-1H-pyrazole-3-carbonyl]-N-(cinnolin-4-yl)piperidine-4-carboxamide]
COc1cc(-c2cc(C(=O)N3CCC(C(=O)NCc4nc5c(cnn5C)c(=O)[nH]4)CC3)n[nH]2)c(Cl)cn1 [1-[5-(5-chloro-2-methoxypyridin-4-yl)-1H-pyrazole-3-carbonyl]-N-({1-methyl-4-oxo-1H,4H,5H-pyrazolo[3,4-d]pyrimidin-6-yl}methyl)piperidine-4-carboxamide]
COc1cc(-c2cc(C(=O)N3CCC(C(=O)NCc4ccn5c(C)c(C)nc5c4)CC3)n[nH]2)c(Cl)cn1 [1-[5-(5-chloro-2-methoxypyridin-4-yl)-1H-pyrazole-3-carbonyl]-N-({2,3-dimethylimidazo[1,2-a]pyridin-7-yl}methyl)piperidine-4-carboxamide]
COc1cc(-c2cc(C(=O)N3CCC(C(=O)NCc4nc5cccnc5[nH]4)CC3)n[nH]2)c(Cl)cn1 [1-[5-(5-chloro-2-methoxypyridin-4-yl)-1H-pyrazole-3-carbonyl]-N-({3H-imidazo[4,5-b]pyridin-2-yl}methyl)piperidine-4-carboxamide]
COc1cc(-c2cc(C(=O)N3CCC(C(=O)NCc4c(C)nc5cc(=O)[nH]n5c4C)CC3)n[nH]2)c(Cl)cn1 [1-[5-(5-chloro-2-methoxypyridin-4-yl)-1H-pyrazole-3-carbonyl]-N-({5,7-dimethyl-2-oxo-1H,2H-pyrazolo[1,5-a]pyrimidin-6-yl}methyl)piperidine-4-carboxamide]
COc1cc(-c2cc(C(=O)N3CCC(C(=O)NCc4ccc5ncnn5c4)CC3)n[nH]2)c(Cl)cn1 [1-[5-(5-chloro-2-methoxypyridin-4-yl)-1H-pyrazole-3-carbonyl]-N-({[1,2,4]triazolo[1,5-a]pyridin-6-yl}methyl)piperidine-4-carboxamide]
COc1cc(-c2cc(C(=O)N3CCC(C(=O)NCc4nnc5ccccn45)CC3)n[nH]2)c(Cl)cn1 [1-[5-(5-chloro-2-methoxypyridin-4-yl)-1H-pyrazole-3-carbonyl]-N-({[1,2,4]triazolo[4,3-a]pyridin-3-yl}methyl)piperidine-4-carboxamide]
COc1cc(-c2cc(C(=O)N3CCC(C(=O)NCc4ccc5nncn5c4)CC3)n[nH]2)c(Cl)cn1 [1-[5-(5-chloro-2-methoxypyridin-4-yl)-1H-pyrazole-3-carbonyl]-N-({[1,2,4]triazolo[4,3-a]pyridin-6-yl}methyl)piperidine-4-carboxamide]
COc1cc(-c2cc(C(=O)N3CCC(C(=O)NCc4cn5ccnc5cn4)CC3)n[nH]2)c(Cl)cn1 [1-[5-(5-chloro-2-methoxypyridin-4-yl)-1H-pyrazole-3-carbonyl]-N-({imidazo[1,2-a]pyrazin-6-yl}methyl)piperidine-4-carboxamide]
COc1cc(-c2cc(C(=O)N3CCC(C(=O)NCc4ccn5ccnc5c4)CC3)n[nH]2)c(Cl)cn1 [1-[5-(5-chloro-2-methoxypyridin-4-yl)-1H-pyrazole-3-carbonyl]-N-({imidazo[1,2-a]pyridin-7-yl}methyl)piperidine-4-carboxamide]
COc1cc(-c2cc(C(=O)N3CCC(C(=O)NCc4cn5cccnc5n4)CC3)n[nH]2)c(Cl)cn1 [1-[5-(5-chloro-2-methoxypyridin-4-yl)-1H-pyrazole-3-carbonyl]-N-({imidazo[1,2-a]pyrimidin-2-yl}methyl)piperidine-4-carboxamide]
COc1cc(-c2cc(C(=O)N3CCC(C(=O)NCc4cnc5nccn5c4)CC3)n[nH]2)c(Cl)cn1 [1-[5-(5-chloro-2-methoxypyridin-4-yl)-1H-pyrazole-3-carbonyl]-N-({imidazo[1,2-a]pyrimidin-6-yl}methyl)piperidine-4-carboxamide]
COc1cc(-c2cc(C(=O)N3CCC(C(=O)NC4(c5cccc(Cl)c5)CC4)CC3)n[nH]2)c(Cl)cn1 [1-[5-(5-chloro-2-methoxypyridin-4-yl)-1H-pyrazole-3-carbonyl]-N-[1-(3-chlorophenyl)cyclopropyl]piperidine-4-carboxamide]
COc1cc(-c2cc(C(=O)N3CCC(C(=O)NC(C)C4COC4)CC3)n[nH]2)c(Cl)cn1 (stereo not shown) [1-[5-(5-chloro-2-methoxypyridin-4-yl)-1H-pyrazole-3-carbonyl]-N-[1-(oxetan-3-yl)ethyl]piperidine-4-carboxamide]
COc1cc(-c2cc(C(=O)N3CCC(C(=O)NC(C)c4cnccn4)CC3)n[nH]2)c(Cl)cn1 (stereo not shown) [1-[5-(5-chloro-2-methoxypyridin-4-yl)-1H-pyrazole-3-carbonyl]-N-[1-(pyrazin-2-yl)ethyl]piperidine-4-carboxamide]
COc1cc(-c2cc(C(=O)N3CCC(C(=O)NC(C)c4ncccn4)CC3)n[nH]2)c(Cl)cn1 (stereo not shown) [1-[5-(5-chloro-2-methoxypyridin-4-yl)-1H-pyrazole-3-carbonyl]-N-[1-(pyrimidin-2-yl)ethyl]piperidine-4-carboxamide]
COc1cc(-c2cc(C(=O)N3CCC(C(=O)NCCn4ccccc4=O)CC3)n[nH]2)c(Cl)cn1 [1-[5-(5-chloro-2-methoxypyridin-4-yl)-1H-pyrazole-3-carbonyl]-N-[2-(2-oxo-1,2-dihydropyridin-1-yl)ethyl]piperidine-4-carboxamide]
COc1cc(-c2cc(C(=O)N3CCC(C(=O)NC(C)(C)c4cccc(Cl)c4)CC3)n[nH]2)c(Cl)cn1 [1-[5-(5-chloro-2-methoxypyridin-4-yl)-1H-pyrazole-3-carbonyl]-N-[2-(3-chlorophenyl)propan-2-yl]piperidine-4-carboxamide]
COc1cc(-c2cc(C(=O)N3CCC(C(=O)NC4CC4C(F)(F)F)CC3)n[nH]2)c(Cl)cn1 (stereo not shown) [1-[5-(5-chloro-2-methoxypyridin-4-yl)-1H-pyrazole-3-carbonyl]-N-[2-(trifluoromethyl)cyclopropyl]piperidine-4-carboxamide]
COc1cc(-c2cc(C(=O)N3CCC(C(=O)Nc4cc(C(F)(F)F)no4)CC3)n[nH]2)c(Cl)cn1 [1-[5-(5-chloro-2-methoxypyridin-4-yl)-1H-pyrazole-3-carbonyl]-N-[3-(trifluoromethyl)-1,2-oxazol-5-yl]piperidine-4-carboxamide]
